# According to US5968514A (priority 1994, dated 1999):
# Several values for one entry are separate records, joined by “and”; a condition that tells them apart may be missing. Equal values may be shown once. Entries after “also recorded” stand apart in the source; their conditions may differ. Read-outs that look alike come from different tables or passages of the source. Ends that are not written are not given here.
# Columns and labels:
# [1] = system: class II MHC molecules on Raji cells; assay type: binding, human
# [2] = system: class II MHC molecules on Raji cells; assay type: binding, human; remark: listed apart in the source
# [3] = system: human peripheral mononuclear cells; assay type: cell-based
# [4] = system: class II MHC molecules on A20 cells; assay type: binding, mouse; settings: for IC50: read-out: concentration reducing 125I-MMTV ORF(76-119) binding to A20 cells by 50%
# [5] = system: class II MHC molecules (I-A^d and I-E^d) on A20 cells; assay type: binding, mouse
# [6] = target: I-Aβ^b (60-90) peptide of class II MHC β-chain (Mus musculus, UniProt P14483); assay type: binding, murine
# [7] = system: class II-negative L cells; assay type: binding
# [8] = system: Whole PMNC; assay type: cell-based, human
# [9] = system: human PMNC, APC and T cell fractions; assay type: cell-based
# Sequence of I-Aβ^b (60-90) peptide of class II MHC β-chain (P14483 87-117): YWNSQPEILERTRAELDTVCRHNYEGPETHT
substance,measurement,setting,value
HIV-1 Nef(1-38): SEQ ID NO. 14 MGGKWSKSSVVGWPTVRERMRRAEPAADGVGAASRDLE,reduction of 125I-SEA binding to Raji cells,[1],slight inhibitory effects; also recorded: slightly reduced
HIV-1 Nef(31-65): SEQ ID NO. 15 GAASRDLEKHGAITSSNTAATNAACAWLEAQEEEE,reduction of 125I-SEA binding to Raji cells,[1],slight inhibitory effects; also recorded: slightly reduced
HIV-1 Nef(123-160): SEQ ID NO. 18 DWQNYTPGPGVRYPLTFGWCYKLVPVEPDKVEEANKGE,IC50,[2]; read-out: concentration reducing 125I-HIV-1 Nef(123-160) binding to Raji cells by 50%,30 µM
same,"SI ± sd, cells cultured with Anti-IgM + peptide",[3]; 96 h,14.1 ± 0.5
same,"SI ± sd, cells cultured with ConA + peptide",[3]; 96 h,4.5 ± 0.4
MMTV ORF(76-119): SEQ ID NO. 1 DSFNNSSVQDYNLNDSENSTFLLGQGPQPTSSYKPHRLCPSEIE,direct binding of 125I-labelled peptide to A20 cells,[4],did bind
same,IC50,[4],25 µM
same,reduction of 125I-SEA binding to A20 cells,[5],approximately 63%
same,IC50,[5]; read-out: concentration reducing 125I-SEA binding to A20 cells by 50%,20 µM and ~20 µM
same,competition with 125I-SEA and 125I-MMTV ORF(76-119) for binding to I-Aβ^b (60-90) peptide,[6],competed
same,binding of MMTV ORF(76-119) to class II-negative L cell line in comparison to A20 cells,[7],insignificant
NKGENTSLLHPVSLHGMDDPEREVLEWRFD [HIV-1 Nef(156-186)],"SI ± sd, cells cultured with ConA + peptide",[3],5.2 ± 1.6
Toxic shock syndrome toxin-1 [TSST-1],competition with 125I-MMTV ORF(76-119) for binding to A20 cells (in words),[4],did not compete
concanavalin A [ConA],IFNγ at 24 H,[8],10
same,IFNγ at 48 h,[8],350 ± 71
same,IFNγ at 72 h,[8],400 ± 141
same,IFNγ at 96 h,[8],150 ± 71
same,level of IFNγ production (comparison in words),[8],levels much lower than that of Nef or SEA
same,"SI ± sd, APC",[9],0.9 ± 0.1
same,"SI ± sd, APC + T cells",[9],40.7 ± 4.3
same,"SI ± sd, stimulus alone",[3],6.0 ± 0.4
staphylococcal enterotoxin A [SEA],competition with 125I-MMTV ORF(76-119) for binding to A20 cells (in words),[4],a more potent competitor
same,IC50,[4],1.8 µM
same,inhibition of 125I-HIV-1 Nef(123-160) binding to Raji cells (in words),[2],"binding as well as SEE, but it was more effective than SEC1 or SEB"
same,IFNγ at 24 H,[8],55 ± 7
same,IFNγ at 48 h,[8],550 ± 141
same,IFNγ at 72 h,[8],3000
same,IFNγ at 96 h,[8],2000
same,"SI ± sd, APC",[9],1.6 ± 0.2
same,ratio of the stimulation index for whole PMNC versus reconstituted APC/T cells,[9],~6.78
same,effectiveness as competitor of 125I-SEA binding relative to MMTV ORF(76-119),[5],20 times
same,IC50,[1]; read-out: concentration reducing 125I-SEA binding to Raji cells by 50%,0.2 µM
same,competition with 125I-SEA and 125I-MMTV ORF(76-119) for binding to I-Aβ^b (60-90) peptide,[6],competed
same,"SI ± sd, stimulus alone",[3],17.6 ± 3.3
staphylococcal enterotoxin B [SEB],competition with 125I-MMTV ORF(76-119) for binding to A20 cells (in words),[4],competed less effectively than SEA
same,inhibition of 125I-HIV-1 Nef(123-160) binding to Raji cells (in words),[2],it was more effective than SEC1 or SEB
